# Experimental data as given in patent US20250320496A1, “MODULATION OF ABCB11 GENE TRANSCRIPTION USING ANTISENSE OLIGONUCLEOTIDES TARGETING REGULATORY RNAS” (CAMP4 Therapeutics Corporation, priority 2022, published 2025).
# Strand notation (5' to 3'): a small letter for the sugar, then the base; units joined by * are phosphorothioate-linked, units joined directly phosphodiester-linked; [ ] holds rarer units or linkages, { } end groups; capitals alone tell only the bases. e = 2'-O-(2-methoxyethyl) (MOE); [5mC] = 5-methylcytosine
# Test system: human ABCB11 mRNA
# Test: ASO treatment of primary human hepatocytes (PHH), ABCB11 mRNA by RT-qPCR normalized to B2M
# Format: cell-based
# Conditions: PHHs, Day 3, normalized to untreated PHHs
# Description: Primary human hepatocytes (PHH) were thawed using Lonza Human Cryopreserved Hepatocyte Thawing Medium and plated in 96-well collagen-coated plates (5.5-6.0×10^4 cells per well). Four hours later, the media was replaced with sterile-filtered QualGro™ Hepatocyte Culture Medium (BioIVT) containing antibiotic supplement, 0.3 mg/ml Matrigel® matrix (Corning®), and ASO at the desired concentration (e.g., 1.25 μM, 2.5 μM, 5 μM, or 10 μM). After 72 hrs., cells were harvested by aspirating media, washing once with phosphate-buffered saline (PBS), and lysed with 150 μl of Buffer RLT lysis buffer (Qiagen®). Plates were frozen at-80° C. during cell lysis. After thawing, total RNA was isolated using the Qiagen RNEasy kit as instructed by manufacturer. cDNA (random-primed) was synthesized from 10 μl of RNA using the LifeTech High Capacity cDNA Reverse Transcription kit. 2 μl of cDNA was used for reverse transcription-quantitative PCR (RT-qPCR) analyses using standard Taqman” reagents from Applied Biosystems™ to measure ABCB11 and CYP7A1 gene expression. Gene expression data was normalized to the housekeeper gene, beta-2-microglobulin (B2M).
# To assess the ability of ASOs targeting ABCB11 regRNAs to modulate the expression of human ABCB11, 195 ASOs targeting the human ABCB11 regRNAs were synthesized. These initial ASOs were screened in PHHs at 5 μM to determine their efficacy in increasing human ABCB11 mRNA using quantitative PCR. This initial screen identified 10 ASOs that induced increased expression of ABCB11 mRNA by more than 1.5-fold (as compared to untreated PHHs).
row,Substance,upregulation of ABCB11 mRNA
1,CO-3974: ASO targeting the paRNA regRNA RR63 (antisense eT*e[5mC]*eT*eG*eG*eA*eA*eA*eA*eT*eA*eA*eT*eG*e[5mC]*e[5mC]*eT*eT*eT*e[5mC]),approximately 1.5 fold
2,CO-3984: ASO targeting the paRNA regRNA RR63 (antisense e[5mC]*eA*eT*eT*eT*eA*eG*eA*eG*eA*e[5mC]*eA*eA*eA*eG*eA*eA*eT*e[5mC]*eG),approximately 1.5 fold
3,CO-3998: ASO targeting the paRNA regRNA RR63 (antisense eA*e[5mC]*e[5mC]*e[5mC]*e[5mC]*e[5mC]*e[5mC]*eT*e[5mC]*eA*e[5mC]*e[5mC]*eT*eT*eG*eGeT*eT*e[5mC]*e[5mC]),approximately 1.5 fold

# Same assay, conditions: primary human hepatocytes, 5 μM ASO, normalized to untreated PHHs (UNT)
row,Substance,ABCB11 mRNA FC (5 μM ASO vs. UNT) [fold change]
1,CO-3974: ASO targeting the paRNA regRNA RR63 (antisense eT*e[5mC]*eT*eG*eG*eA*eA*eA*eA*eT*eA*eA*eT*eG*e[5mC]*e[5mC]*eT*eT*eT*e[5mC]),1.2
2,CO-3984: ASO targeting the paRNA regRNA RR63 (antisense e[5mC]*eA*eT*eT*eT*eA*eG*eA*eG*eA*e[5mC]*eA*eA*eA*eG*eA*eA*eT*e[5mC]*eG),1.111
3,CO-3988 (antisense eA*eA*eA*eT*eG*e[5mC]*e[5mC]*e[5mC]*eA*eA*eG*eT*eT*eT*e[5mC]*eA*eT*eT*eG*e[5mC]),1.827
4,CO-3989 (antisense eA*eA*eG*eA*eT*eG*e[5mC]*eT*eA*e[5mC]*eA*eA*eT*eT*eG*e[5mC]*e[5mC]*eA*eT*eA),1.19
5,CO-3991 (antisense eG*eG*eG*eA*eT*eG*eA*e[5mC]eT*e[5mC]*e[5mC]eT*eA*eA*eA*eA*eA*eT*eG*eG),1.614
6,CO-3992 (antisense eT*eG*eT*eT*eT*e[5mC]*e[5mC]*eT*eA*eG*eT*eA*e[5mC]*e[5mC]*eA*eA*eG*eA*eA*eT),1.388
7,CO-3993 (antisense eG*e[5mC]*e[5mC]*e[5mC]*e[5mC]*eT*eT*eG*eA*eA*eT*eA*eA*eT*eT*eT*eT*eT*eG*eT),1
8,CO-3994 (antisense e[5mC]*e[5mC]*e[5mC]*eA*e[5mC]*eT*e[5mC]*eT*eA*eG*eA*eT*eT*eG*e[5mC]*eA*eA*eG*e[5mC]*e[5mC]),1.988
9,CO-3995 (antisense eG*eT*e[5mC]*eT*eA*eG*eG*eA*eG*e[5mC]*eT*eT*e[5mC]*eT*eG*eT*eT*eT*eA*e[5mC]),1.683
10,CO-3996 (antisense eT*eT*eG*eT*e[5mC]*eT*e[5mC]*eT*eG*eG*eT*eT*eG*eAeA*eG*e[5mC]*e[5mC]*eT*e[5mC]),2.097
11,CO-3997 (antisense eG*e[5mC]*eT*eG*eT*eG*e[5mC]*eT*e[5mC]*eT*eG*eT*eA*eA*e[5mC]*eA*e[5mC]*eT*eG*eT),1.501
12,CO-3998: ASO targeting the paRNA regRNA RR63 (antisense eA*e[5mC]*e[5mC]*e[5mC]*e[5mC]*e[5mC]*e[5mC]*eT*e[5mC]*eA*e[5mC]*e[5mC]*eT*eT*eG*eGeT*eT*e[5mC]*e[5mC]),1.319
13,CO-3999 (antisense eG*eG*e[5mC]*eA*eA*e[5mC]*e[5mC]*eT*e[5mC]*eG*eT*e[5mC]*e[5mC]*e[5mC]*e[5mC]*eT*e[5mC]*eA*e[5mC]*eT),1.076
14,CO-4011 (antisense eT*e[5mC]*e[5mC]*eA*eA*e[5mC]*eA*e[5mC]*e[5mC]*eG*eT*eA*e[5mC]*eT*e[5mC]*eA*eT*eT*eT*e[5mC]),1.184
15,CO-4012 (antisense eG*eA*eA*e[5mC]*eT*eA*e[5mC]*eA*e[5mC]*e[5mC]*eG*eA*e[5mC]*eT*eT*eT*eA*eT*e[5mC]*eT),1.15
16,CO-4013 (antisense eT*eT*eG*eA*eA*eA*eG*e[5mC]*eT*eG*eG*eT*eT*eT*eA*eA*eT*eG*e[5mC]*eA),1.166
17,CO-4014 (antisense eG*eA*eT*e[5mC]*eA*e[5mC]*eA*eA*eA*eT*eT*e[5mC]*eT*eA*e[5mC]*e[5mC]*e[5mC]*eT*eT*eG),1.003
18,CO-4015 (antisense eG*eT*eT*eT*eG*e[5mC]*eT*e[5mC]*eT*eG*eA*eT*eA*eA*eT*e[5mC]*eA*e[5mC]*eA*eG),1.043
19,CO-4016 (antisense eT*eT*eT*eT*eA*eA*e[5mC]*eT*eT*eG*eG*e[5mC]*eT*eT*eT*eG*eT*eG*eA*eA),1.294
20,CO-4017 (antisense e[5mC]*eT*eG*e[5mC]*eT*e[5mC]*eA*eA*eA*eG*eT*eA*eA*eA*eA*eA*eT*eA*e[5mC]*e[5mC]),1.228
21,CO-4018 (antisense eA*eT*eG*eG*e[5mC]*e[5mC]*eG*eA*eA*eT*eA*eG*eA*eT*eT*eG*eA*eA*eT*eA),1.124
22,CO-4019 (antisense eA*eG*eA*eG*eT*eG*eG*eT*eG*eT*eA*e[5mC]*eA*eT*eG*eG*eG*eT*eG*eT),1.028

row,Substance,ABCB11 mRNA FC (5 μM ASO vs. UNT) [fold change]
1,CO-4020 (antisense e[5mC]*eA*eT*eG*eT*eA*eT*e[5mC]*eA*eA*eT*e[5mC]*eT*e[5mC]*eT*eT*eA*eG*eA*eG),1.201
2,CO-4021 (antisense eG*eT*e[5mC]*eT*eT*e[5mC]*eT*eT*eT*eA*eT*eA*eG*e[5mC]*eA*eA*eT*eG*e[5mC]*eT),1.301
3,CO-4022 (antisense eG*eA*eT*eG*eA*e[5mC]*eT*e[5mC]*eT*eT*eG*eG*eT*eT*eG*e[5mC]*eT*eG*eT*e[5mC]),1.168
4,CO-4023 (antisense e[5mC]*eA*e[5mC]*eA*eA*e[5mC]*eA*eT*eT*eG*eT*eA*eT*eA*e[5mC]*eA*eA*eT*eA*e[5mC]),1.092
5,CO-4024 (antisense eA*e[5mC]*eT*eT*eA*e[5mC]*eA*eG*eG*eA*eT*eG*e[5mC]*eA*eT*eT*eA*eA*eT*eG),0.997
6,CO-4025 (antisense eA*e[5mC]*eG*e[5mC]*eT*eA*e[5mC]*eA*eA*eT*eA*e[5mC]*eT*eT*eG*eG*eA*eT*eA*eG),0.832
7,CO-4026 (antisense e[5mC]*eT*eT*eG*eT*e[5mC]*e[5mC]*eA*eG*eT*eG*eT*eA*eA*eA*e[5mC]*eA*eA*e[5mC]*eG),1.234
8,CO-4027 (antisense eG*eT*eG*eG*eA*eG*eT*eGeT*eT*eT*e[5mC]*eT*eG*eG*eT*eT*eT*eA*eT),1.095
9,CO-4028 (antisense eT*eT*eA*eA*e[5mC]*eT*e[5mC]*eT*eT*eA*e[5mC]*eT*eT*eT*eG*eT*eG*eG*eA*eG),1.418
10,CO-4029 (antisense eA*eT*eA*e[5mC]*eT*eT*eG*eT*e[5mC]*eT*e[5mC]*eT*eG*e[5mC]eA*eA*eA*eT*e[5mC]*e[5mC]),0.908
11,CO-4030 (antisense eT*e[5mC]*eA*e[5mC]*eA*eG*eGeT*eA*eA*eG*eT*eA*eA*e[5mC]*eT*eT*eA*eT*eA),1.106
12,CO-4031 (antisense eG*eG*e[5mC]*eT*eT*e[5mC]*e[5mC]*eT*e[5mC]*eA*eA*eA*eT*eT*e[5mC]*eA*eT*eA*eT*eT),1.427
13,CO-4032 (antisense eA*eG*eT*e[5mC]*e[5mC]*eA*eT*eT*eA*eT*eT*eT*e[5mC]*e[5mC]*eT*e[5mC]*eT*eG*eG*e[5mC]),1.311
14,CO-4033 (antisense eG*eA*eA*eA*e[5mC]*e[5mC]*eT*eT*eT*eT*eA*eA*e[5mC]*eT*e[5mC]*eT*e[5mC]*e[5mC]*eA*e[5mC]),1.472
15,CO-4034 (antisense e[5mC]*eG*eA*eG*eG*eT*eT*eG*eG*eA*eA*eA*eA*eG*eG*eT*eT*eG*eT*eG),0.792
16,CO-4035 (antisense eG*eT*eT*e[5mC]*eA*eG*eT*eG*e[5mC]*eT*eT*eT*eA*eG*eA*eA*eT*eG*eA*eT),0.926
17,CO-4036 (antisense eG*e[5mC]*eA*eA*eA*eT*eA*eG*eA*eT*eA*eA*eT*eG*eT*eT*e[5mC]*eT*eT*eG),1.235
18,CO-4037 (antisense eG*eG*eG*eA*e[5mC]*eA*eT*eT*eG*eA*eT*e[5mC]*e[5mC]*eT*eT*eA*eG*eG*e[5mC]*eA),0.697
19,CO-4038 (antisense e[5mC]*eT*e[5mC]*eG*eT*eA*eT*eG*eT*e[5mC]*eA*e[5mC]*eT*eG*eA*eA*e[5mC]*eT*eG*eT),1.701
20,CO-4039 (antisense eG*eG*eT*eT*eA*eT*eT*eG*e[5mC]*eT*e[5mC]*eT*eG*eA*eG*eT*eA*eT*eG*eT),1.022
21,CO-4040 (antisense eG*eT*eT*eT*e[5mC]*e[5mC]*e[5mC]*eA*eA*eG*e[5mC]*eA*e[5mC]*eA*e[5mC]*eT*e[5mC]*eT*eG*eT),0.921
22,CO-4041 (antisense eT*e[5mC]*e[5mC]*eA*eA*eG*eG*e[5mC]*e[5mC]*eT*eG*eT*eT*eG*eA*e[5mC]*eA*e[5mC]*e[5mC]*e[5mC]),0.963
